# Source: ChEMBL document CHEMBL3632622, “Synthesis and biological evaluation of novel N-phenyl ureidobenzenesulfonate derivatives as potential anticancer agents. Part 2. Modulation of the ring B” (Eur J Med Chem, 2015)
# pIC50: −log10 of the molar value. Active and inactive are the calls of the source. No cut-off for these calls is given here.
# Key:
# [1] = test system: HT-29; assay: Antiproliferative activity against human HT-29 cells assessed as growth inhibition incubated for 48 hrs by sulforhodamine B assay; type: functional, cell-based; settings: HT-29, 48 h
# [2] = test system: MCF7; assay: Antiproliferative activity against human MCF7 cells assessed as growth inhibition incubated for 48 hrs by sulforhodamine B assay; type: functional, cell-based; settings: MCF7, 48 h
# [3] = test system: M21; assay: Cell cycle arrest in human M21 cells assessed as accumulation at G2/M phase at 13 uM after 24 hrs by DAPI staining-based flow cytometry (reference value: 16%); type: functional
# [4] = test system: M21; assay: Cell cycle arrest in human M21 cells assessed as accumulation at subG1 phase at 13 uM after 24 hrs by DAPI staining-based flow cytometry (reference value: 1.5%); type: functional
# [5] = test system: M21; assay: Cell cycle arrest in human M21 cells assessed as accumulation at S phase at 13 uM after 24 hrs by DAPI staining-based flow cytometry (reference value: 17.4%); type: functional
# [6] = test system: M21; assay: Cell cycle arrest in human M21 cells assessed as accumulation at G0/G1 phase at 13 uM after 24 hrs by DAPI staining-based flow cytometry (reference value: 65.1%); type: functional
# [7] = Antiproliferative activity against human HT1080 cells assessed as growth inhibition incubated for 48 hrs by sulforhodamine B assay; type: functional, cell-based, HT-1080; settings: Homo sapiens, HT-1080, 48 h; read-out: IC50
# [8] = test system: M21; assay: Antiproliferative activity against human M21 cells assessed as growth inhibition incubated for 48 hrs by sulforhodamine B assay; type: functional, cell-based; settings: M21, 48 h
# [9] = test system: M21; assay: Cell cycle arrest in human M21 cells assessed as accumulation at subG1 phase at 3.9 uM after 24 hrs by DAPI staining-based flow cytometry (reference value: 1.5%); type: functional
# [10] = test system: M21; assay: Cell cycle arrest in human M21 cells assessed as accumulation at S phase at 3.9 uM after 24 hrs by DAPI staining-based flow cytometry (reference value: 17.4%); type: functional
# [11] = test system: M21; assay: Induction DNA DSBs in human M21 cells assessed as increase in gamma H2AX foci at 3.9 uM incubated for 24 hrs by DAPI staining based immunocytochemistry; type: cell-based
# [12] = test system: M21; assay: Cell cycle arrest in human M21 cells assessed as accumulation at G0/G1 phase at 3.9 uM after 24 hrs by DAPI staining-based flow cytometry (reference value: 65.1%); type: functional
# [13] = test system: M21; assay: Cell cycle arrest in human M21 cells assessed as accumulation at G2/M phase at 3.9 uM after 24 hrs by DAPI staining-based flow cytometry (reference value: 16%); type: functional
# [14] = test system: M21; assay: Cell cycle arrest in human M21 cells assessed as accumulation at S phase at 4.1 uM after 24 hrs by DAPI staining-based flow cytometry (reference value: 17.4%); type: functional
# [15] = test system: M21; assay: Cell cycle arrest in human M21 cells assessed as accumulation at subG1 phase at 4.1 uM after 24 hrs by DAPI staining-based flow cytometry (reference value: 1.5%); type: functional
# [16] = test system: M21; assay: Induction DNA DSBs in human M21 cells assessed as increase in gamma H2AX foci at 4.1 uM incubated for 24 hrs by DAPI staining based immunocytochemistry; type: cell-based
# [17] = test system: M21; assay: Cell cycle arrest in human M21 cells assessed as accumulation at G0/G1 phase at 4.1 uM after 24 hrs by DAPI staining-based flow cytometry (reference value: 65.1%); type: functional
# [18] = test system: M21; assay: Cell cycle arrest in human M21 cells assessed as accumulation at G2/M phase at 4.1 uM after 24 hrs by DAPI staining-based flow cytometry (reference value: 16%); type: functional
# [19] = test system: M21; assay: Cell cycle arrest in human M21 cells assessed as accumulation at subG1 phase at 8.1 uM after 24 hrs by DAPI staining-based flow cytometry (reference value: 1.5%); type: functional
# [20] = test system: M21; assay: Cell cycle arrest in human M21 cells assessed as accumulation at G2/M phase at 8.1 uM after 24 hrs by DAPI staining-based flow cytometry (reference value: 16%); type: functional
# [21] = test system: M21; assay: Cell cycle arrest in human M21 cells assessed as accumulation at S phase at 8.1 uM after 24 hrs by DAPI staining-based flow cytometry (reference value: 17.4%); type: functional
# [22] = test system: M21; assay: Induction DNA DSBs in human M21 cells assessed as increase in gamma H2AX foci at 20 uM incubated for 24 hrs by DAPI staining based immunocytochemistry; type: cell-based
# [23] = test system: M21; assay: Cell cycle arrest in human M21 cells assessed as accumulation at G0/G1 phase at 8.1 uM after 24 hrs by DAPI staining-based flow cytometry (reference value: 65.1%); type: functional
# [24] = test system: M21; assay: Cell cycle arrest in human M21 cells assessed as accumulation at subG1 phase at 2.6 uM after 24 hrs by DAPI staining-based flow cytometry (reference value: 1.5%); type: functional
# [25] = test system: M21; assay: Cell cycle arrest in human M21 cells assessed as accumulation at G0/G1 phase at 2.6 uM after 24 hrs by DAPI staining-based flow cytometry (reference value: 65.1%); type: functional
# [26] = test system: M21; assay: Cell cycle arrest in human M21 cells assessed as accumulation at G2/M phase at 2.6 uM after 24 hrs by DAPI staining-based flow cytometry (reference value: 16%); type: functional
# [27] = test system: M21; assay: Cell cycle arrest in human M21 cells assessed as accumulation at S phase at 2.6 uM after 24 hrs by DAPI staining-based flow cytometry (reference value: 17.4%); type: functional
# [28] = test system: M21; assay: Cell cycle arrest in human M21 cells assessed as accumulation at G0/G1 phase at 10 uM after 24 hrs by DAPI staining-based flow cytometry (reference value: 65.1%); type: functional
# [29] = test system: M21; assay: Cell cycle arrest in human M21 cells assessed as accumulation at S phase at 10 uM after 24 hrs by DAPI staining-based flow cytometry (reference value: 17.4%); type: functional
# [30] = test system: M21; assay: Cell cycle arrest in human M21 cells assessed as accumulation at subG1 phase at 10 uM after 24 hrs by DAPI staining-based flow cytometry (reference value: 1.5%); type: functional
# [31] = test system: M21; assay: Cell cycle arrest in human M21 cells assessed as accumulation at G2/M phase at 10 uM after 24 hrs by DAPI staining-based flow cytometry (reference value: 16%); type: functional
# [32] = test system: M21; assay: Induction DNA DSBs in human M21 cells assessed as increase in gamma H2AX foci at 10 uM incubated for 24 hrs by DAPI staining based immunocytochemistry; type: cell-based
# [33] = test system: M21; assay: Cell cycle arrest in human M21 cells assessed as accumulation at S phase at 5.4 uM after 24 hrs by DAPI staining-based flow cytometry (reference value: 17.4%); type: functional
# [34] = test system: M21; assay: Cell cycle arrest in human M21 cells assessed as accumulation at subG1 phase at 5.4 uM after 24 hrs by DAPI staining-based flow cytometry (reference value: 1.5%); type: functional
# [35] = test system: M21; assay: Induction DNA DSBs in human M21 cells assessed as increase in gamma H2AX foci at 5.4 uM incubated for 24 hrs by DAPI staining based immunocytochemistry; type: cell-based
# [36] = test system: M21; assay: Cell cycle arrest in human M21 cells assessed as accumulation at G0/G1 phase at 5.4 uM after 24 hrs by DAPI staining-based flow cytometry (reference value: 65.1%); type: functional
# [37] = test system: M21; assay: Cell cycle arrest in human M21 cells assessed as accumulation at G2/M phase at 5.4 uM after 24 hrs by DAPI staining-based flow cytometry (reference value: 16%); type: functional
# [38] = test system: M21; assay: Induction DNA DSBs in human M21 cells assessed as increase in gamma H2AX foci at 15 uM incubated for 24 hrs by DAPI staining based immunocytochemistry; type: cell-based
# [39] = test system: M21; assay: Cell cycle arrest in human M21 cells assessed as accumulation at subG1 phase at 5.9 uM after 24 hrs by DAPI staining-based flow cytometry (reference value: 1.5%); type: functional
# [40] = test system: M21; assay: Cell cycle arrest in human M21 cells assessed as accumulation at S phase at 5.9 uM after 24 hrs by DAPI staining-based flow cytometry (reference value: 17.4%); type: functional
# [41] = test system: M21; assay: Cell cycle arrest in human M21 cells assessed as accumulation at G0/G1 phase at 5.9 uM after 24 hrs by DAPI staining-based flow cytometry (reference value: 65.1%); type: functional
# [42] = test system: M21; assay: Cell cycle arrest in human M21 cells assessed as accumulation at G2/M phase at 5.9 uM after 24 hrs by DAPI staining-based flow cytometry (reference value: 16%); type: functional
# [43] = test system: M21; assay: Cell cycle arrest in human M21 cells assessed as accumulation at subG1 phase at 3.3 uM after 24 hrs by DAPI staining-based flow cytometry (reference value: 1.5%); type: functional
# [44] = test system: M21; assay: Cell cycle arrest in human M21 cells assessed as accumulation at S phase at 3.3 uM after 24 hrs by DAPI staining-based flow cytometry (reference value: 17.4%); type: functional
# [45] = test system: M21; assay: Induction DNA DSBs in human M21 cells assessed as increase in gamma H2AX foci at 3.3 uM incubated for 24 hrs by DAPI staining based immunocytochemistry; type: functional, cell-based
# [46] = test system: M21; assay: Cell cycle arrest in human M21 cells assessed as accumulation at G2/M phase at 3.3 uM after 24 hrs by DAPI staining-based flow cytometry (reference value: 16%); type: functional
# [47] = test system: M21; assay: Cell cycle arrest in human M21 cells assessed as accumulation at G0/G1 phase at 3.3 uM after 24 hrs by DAPI staining-based flow cytometry (reference value: 65.1%); type: functional
smiles,measurement,setting,value
O=C(NCCCl)Nc1ccc(S(=O)(=O)Oc2cccc(Br)c2)cc1,pIC50,[1],5.68
same,pIC50,[2],5.59
same,Activity,[3],92.4%
same,Activity,[4],4.4%
same,Activity,[5],1.6%
same,Activity,[6],1.6%
same,pIC50,[7],5.70
same,pIC50,[8],5.66
Cc1cccc(C)c1OS(=O)(=O)c1ccc(NC(=O)NCCCl)cc1,pIC50,[1],5.55
same,Activity,[9],1.6%
same,Activity,[10],47.1%
same,Activity,[11],Active
same,pIC50,[2],5.43
same,Activity,[12],31%
same,pIC50,[7],5.96
same,Activity,[13],20.3%
same,pIC50,[8],5.70
Cc1ccc(OS(=O)(=O)c2ccc(NC(=O)NCCCl)cc2)c(C)c1,pIC50,[1],5.44
same,Activity,[14],46.4%
same,pIC50,[2],5.41
same,Activity,[15],1.4%
same,pIC50,[7],5.89
same,Activity,[16],Active
same,pIC50,[8],5.68
same,Activity,[17],28.4%
same,Activity,[18],23.8%
O=C(NCCCl)Nc1ccc(S(=O)(=O)Oc2ccccc2F)cc1,pIC50,[1],5.27
same,Activity,[19],2.6%
same,pIC50,[2],5.22
same,Activity,[20],34.6%
same,Activity,[21],37.6%
same,pIC50,[7],5.49
same,Activity,[22],Active
same,Activity,[23],25.2%
same,pIC50,[8],5.40
CCCc1ccccc1OS(=O)(=O)c1ccc(NC(=O)NCCCl)cc1,pIC50,[1],5.72
same,Activity,[24],1.3%
same,pIC50,[2],5.68
same,Activity,[25],36%
same,Activity,[26],25.7%
same,pIC50,[7],5.72
same,Activity,[27],37%
same,pIC50,[8],5.89
O=C(NCCCl)Nc1ccc(S(=O)(=O)Oc2cccc(Cl)c2)cc1,pIC50,[1],5.55
same,pIC50,[2],5.43
same,Activity,[3],80.6%
same,Activity,[4],5.2%
same,Activity,[5],7%
same,Activity,[6],7.2%
same,pIC50,[7],5.59
same,pIC50,[8],5.59
O=C(NCCCl)Nc1ccc(S(=O)(=O)Oc2ccccc2Cl)cc1,pIC50,[1],5.46
same,Activity,[28],43.8%
same,Activity,[29],33.3%
same,pIC50,[2],5.38
same,Activity,[30],1.9%
same,Activity,[31],21%
same,pIC50,[7],5.96
same,Activity,[32],Active
same,pIC50,[8],5.68
Cc1ccccc1OS(=O)(=O)c1ccc(NC(=O)NCCCl)cc1,pIC50,[1],5.31
same,Activity,[33],39%
same,pIC50,[2],5.21
same,Activity,[34],2.3%
same,Activity,[35],Active
same,Activity,[36],39.2%
same,pIC50,[7],5.80
same,Activity,[37],19.5%
same,pIC50,[8],5.35
O=C(NCCCl)Nc1ccc(S(=O)(=O)Oc2ccccc2[N+](=O)[O-])cc1,pIC50,[1],5.24
same,Activity,[38],Active
same,pIC50,[2],5.13
same,Activity,[39],1.4%
same,Activity,[40],43%
same,pIC50,[7],5.62
same,Activity,[41],32.5%
same,Activity,[42],23.1%
same,pIC50,[8],5.41
Cc1cc(C)c(OS(=O)(=O)c2ccc(NC(=O)NCCCl)cc2)cc1C,pIC50,[1],5.64
same,pIC50,[2],5.52
same,Activity,[43],1.7%
same,Activity,[44],43.8%
same,Activity,[45],Active
same,Activity,[46],27%
same,pIC50,[7],6.00
same,Activity,[47],27.5%
same,pIC50,[8],5.77
